Experimental data published in the supplement of paper PMC13207355.

How the values were obtained:
Conditions in all cases: exposure time: 72 h
E34 [1] = patient-derived glioblastoma stem cells of proneural subtype; assay: surviving fraction (nuclei count normalised to DMSO); higher = more cells surviving (less toxic)
E13 [2] = patient-derived glioblastoma stem cells of classical subtype; assay: as above
E28 [3] = patient-derived glioblastoma stem cells of classical subtype; assay: as above
E21 [4] = patient-derived glioblastoma stem cells of mesenchymal subtype; assay: as above
E31 [5] = patient-derived glioblastoma stem cells of proneural subtype; assay: as above
FT3469 [6] = normal neural stem cell line; assay: as above
E57 [7] = patient-derived glioblastoma stem cells of mesenchymal subtype; assay: as above
E34 [8] = assay: phenotypic distance (Euclidean, principal components) from DMSO controls (arbitrary units); higher = stronger morphological change
E13 [9] = assay: as above
E28 [10] = assay: as above
E21 [11] = assay: as above
E31 [12] = assay: as above
FT3469 [13] = assay: as above
E57 [14] = assay: as above
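For phenotypic distance (Euclidean, principal components) from DMSO controls in this document: cell Painting imaging in 384-well plates, CellProfiler features reduced to at least 20 principal components, Euclidean distance versus same-plate DMSO vehicle wells (0.1% v/v), median over six images per well.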
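For surviving fraction (nuclei count normalised to DMSO) in this document: nuclei counted by high-content imaging of Hoechst-stained cells in laminin-coated 384-well plates, relative to 0.1% DMSO vehicle wells, with staurosporine as cell-death control.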

COc1cc([C@@H]2c3cc4c(cc3[C@H](O)[C@H]3COC(=O)[C@H]23)OCO4)cc(OC)c1OC [Podophyllotoxin]
Conditions | phenotypic distance | surviving fraction
E13 [2], 4.1 nM | – | 0.153
E13 [2], 12.3 nM | – | 0.182
E13 [2], 37 nM | – | 0.139
E13 [2], 111.1 nM | – | 0.182
E13 [2], 333.3 nM | – | 0.123
E13 [2], 1000 nM | – | 0.197
E13 [2], 3000 nM | – | 0.112
E13 [9], 4.1 nM | 6.81 | –
E13 [9], 12.3 nM | 7.76 | –
E13 [9], 37 nM | 6.3 | –
E13 [9], 111.1 nM | 8.14 | –
E13 [9], 333.3 nM | 7.56 | –
E13 [9], 1000 nM | 9.37 | –
E13 [9], 3000 nM | 9.25 | –
E21 [4], 4.1 nM | – | 0.115
E21 [4], 12.3 nM | – | 0.113
E21 [4], 37 nM | – | 0.0947
E21 [4], 111.1 nM | – | 0.0585
E21 [4], 333.3 nM | – | 0.0628
E21 [4], 1000 nM | – | 0.0607
E21 [4], 3000 nM | – | 0.0362
E21 [11], 4.1 nM | 8.85 | –
E21 [11], 12.3 nM | 8.76 | –
E21 [11], 37 nM | 8.54 | –
E21 [11], 111.1 nM | 8.65 | –
E21 [11], 333.3 nM | 8.16 | –
E21 [11], 1000 nM | 8.89 | –
E21 [11], 3000 nM | 8.66 | –
E28 [3], 4.1 nM | – | 0.354
E28 [3], 12.3 nM | – | 0.369
E28 [3], 37 nM | – | 0.324
E28 [3], 111.1 nM | – | 0.265
E28 [3], 333.3 nM | – | 0.22
E28 [3], 1000 nM | – | 0.209
E28 [3], 3000 nM | – | 0.198
E28 [10], 4.1 nM | 3.02 | –
E28 [10], 12.3 nM | 3.22 | –
E28 [10], 37 nM | 4.05 | –
E28 [10], 111.1 nM | 5.71 | –
E28 [10], 333.3 nM | 5.89 | –
E28 [10], 1000 nM | 6.42 | –
E28 [10], 3000 nM | 6.86 | –
E31 [5], 4.1 nM | – | 0.0505
E31 [5], 12.3 nM | – | 0.0728
E31 [5], 37 nM | – | 0.0565
E31 [5], 111.1 nM | – | 0.0446
E31 [5], 333.3 nM | – | 0.0282
E31 [5], 1000 nM | – | 0.0371
E31 [5], 3000 nM | – | 0.0297
E31 [12], 4.1 nM | 5.03 | –
E31 [12], 12.3 nM | 5.75 | –
E31 [12], 37 nM | 7.75 | –
E31 [12], 111.1 nM | 13.3 | –
E31 [12], 333.3 nM | 11.2 | –
E31 [12], 1000 nM | 14.3 | –
E31 [12], 3000 nM | 13.5 | –
E34 [1], 4.1 nM | – | 0.471
E34 [1], 12.3 nM | – | 0.378
E34 [1], 37 nM | – | 0.31
E34 [1], 111.1 nM | – | 0.339
E34 [1], 333.3 nM | – | 0.32
E34 [1], 1000 nM | – | 0.329
E34 [1], 3000 nM | – | 0.249
E34 [8], 4.1 nM | 4.47 | –
E34 [8], 12.3 nM | 4.98 | –
E34 [8], 37 nM | 6.57 | –
E34 [8], 111.1 nM | 8.02 | –
E34 [8], 333.3 nM | 7.55 | –
E34 [8], 1000 nM | 9.53 | –
E34 [8], 3000 nM | 9.18 | –
E57 [7], 4.1 nM | – | 0.0665
E57 [7], 12.3 nM | – | 0.0974
E57 [7], 37 nM | – | 0.0586
E57 [7], 111.1 nM | – | 0.0625
E57 [7], 333.3 nM | – | 0.089
E57 [7], 1000 nM | – | 0.0755
E57 [7], 3000 nM | – | 0.0653
E57 [14], 4.1 nM | 6.96 | –
E57 [14], 12.3 nM | 6.65 | –
E57 [14], 37 nM | 7.38 | –
E57 [14], 111.1 nM | 5.64 | –
E57 [14], 333.3 nM | 6.77 | –
E57 [14], 1000 nM | 7.07 | –
E57 [14], 3000 nM | 6.6 | –
FT3469 [6], 4.1 nM | – | 0.517
FT3469 [6], 12.3 nM | – | 0.541
FT3469 [6], 37 nM | – | 0.375
FT3469 [6], 111.1 nM | – | 0.377
FT3469 [6], 333.3 nM | – | 0.433
FT3469 [6], 1000 nM | – | 0.416
FT3469 [6], 3000 nM | – | 0.379
FT3469 [13], 4.1 nM | 4.23 | –
FT3469 [13], 12.3 nM | 5.67 | –
FT3469 [13], 37 nM | 4.76 | –
FT3469 [13], 111.1 nM | 6.26 | –
FT3469 [13], 333.3 nM | 5.78 | –
FT3469 [13], 1000 nM | 5.4 | –
FT3469 [13], 3000 nM | 6.63 | –

CC[N+](CC)(CC)CCOc1ccc(/C=C/c2ccccc2)cc1 [MG 624]
Conditions | phenotypic distance | surviving fraction
E13 [2], 4.1 nM | – | 0.872
E13 [2], 12.3 nM | – | 1.01
E13 [2], 37 nM | – | 0.904
E13 [2], 111.1 nM | – | 0.898
E13 [2], 333.3 nM | – | 0.819
E13 [2], 1000 nM | – | 0.958
E13 [2], 3000 nM | – | 0.636
E13 [9], 4.1 nM | 0.785 | –
E13 [9], 12.3 nM | 1.16 | –
E13 [9], 37 nM | 0.769 | –
E13 [9], 111.1 nM | 0.848 | –
E13 [9], 333.3 nM | 1.65 | –
E13 [9], 1000 nM | 2.21 | –
E13 [9], 3000 nM | 2.89 | –
E21 [4], 4.1 nM | – | 0.978
E21 [4], 12.3 nM | – | 0.972
E21 [4], 37 nM | – | 0.961
E21 [4], 111.1 nM | – | 1.05
E21 [4], 333.3 nM | – | 1.02
E21 [4], 1000 nM | – | 0.929
E21 [4], 3000 nM | – | 0.748
E21 [11], 4.1 nM | 0.724 | –
E21 [11], 12.3 nM | 0.703 | –
E21 [11], 37 nM | 0.669 | –
E21 [11], 111.1 nM | 0.982 | –
E21 [11], 333.3 nM | 1.38 | –
E21 [11], 1000 nM | 1.38 | –
E21 [11], 3000 nM | 2.84 | –
E28 [3], 4.1 nM | – | 1.04
E28 [3], 12.3 nM | – | 1.24
E28 [3], 37 nM | – | 0.999
E28 [3], 111.1 nM | – | 1.11
E28 [3], 333.3 nM | – | 1.29
E28 [3], 1000 nM | – | 0.97
E28 [3], 3000 nM | – | 0.897
E28 [10], 4.1 nM | 2.26 | –
E28 [10], 12.3 nM | 1.2 | –
E28 [10], 37 nM | 0.981 | –
E28 [10], 111.1 nM | 1.14 | –
E28 [10], 333.3 nM | 1.59 | –
E28 [10], 1000 nM | 0.807 | –
E28 [10], 3000 nM | 0.948 | –
E31 [5], 4.1 nM | – | 1.02
E31 [5], 12.3 nM | – | 1.02
E31 [5], 37 nM | – | 0.927
E31 [5], 111.1 nM | – | 1.22
E31 [5], 333.3 nM | – | 1.03
E31 [5], 1000 nM | – | 1.11
E31 [5], 3000 nM | – | 0.671
E31 [12], 4.1 nM | 2.31 | –
E31 [12], 12.3 nM | 2.34 | –
E31 [12], 37 nM | 0.662 | –
E31 [12], 111.1 nM | 1.14 | –
E31 [12], 333.3 nM | 1.83 | –
E31 [12], 1000 nM | 2.39 | –
E31 [12], 3000 nM | 3.97 | –
E34 [1], 4.1 nM | – | 1.13
E34 [1], 12.3 nM | – | 0.931
E34 [1], 37 nM | – | 0.93
E34 [1], 111.1 nM | – | 0.904
E34 [1], 333.3 nM | – | 1.06
E34 [1], 1000 nM | – | 1.1
E34 [1], 3000 nM | – | 0.853
E34 [8], 4.1 nM | 0.531 | –
E34 [8], 12.3 nM | 0.708 | –
E34 [8], 37 nM | 1 | –
E34 [8], 111.1 nM | 0.94 | –
E34 [8], 333.3 nM | 1.4 | –
E34 [8], 1000 nM | 1.76 | –
E34 [8], 3000 nM | 0.649 | –
E57 [7], 4.1 nM | – | 0.981
E57 [7], 12.3 nM | – | 0.982
E57 [7], 37 nM | – | 1.06
E57 [7], 111.1 nM | – | 1.1
E57 [7], 333.3 nM | – | 1.15
E57 [7], 1000 nM | – | 0.922
E57 [7], 3000 nM | – | 1.05
E57 [14], 4.1 nM | 0.764 | –
E57 [14], 12.3 nM | 0.906 | –
E57 [14], 37 nM | 0.99 | –
E57 [14], 111.1 nM | 1.14 | –
E57 [14], 333.3 nM | 1.29 | –
E57 [14], 1000 nM | 1.55 | –
E57 [14], 3000 nM | 1.49 | –
FT3469 [6], 4.1 nM | – | 0.999
FT3469 [6], 12.3 nM | – | 0.934
FT3469 [6], 37 nM | – | 1.26
FT3469 [6], 111.1 nM | – | 1.25
FT3469 [6], 333.3 nM | – | 1.13
FT3469 [6], 1000 nM | – | 1.12
FT3469 [6], 3000 nM | – | 1.03
FT3469 [13], 4.1 nM | 0.491 | –
FT3469 [13], 12.3 nM | 1.05 | –
FT3469 [13], 37 nM | 0.814 | –
FT3469 [13], 111.1 nM | 1.61 | –
FT3469 [13], 333.3 nM | 1.29 | –
FT3469 [13], 1000 nM | 1.26 | –
FT3469 [13], 3000 nM | 1.36 | –
